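Step 1: Grow cells in 96-well plates. Step 2: Expose to compound for 48 hours at 5 concentrations. Step 3: Interpolate endpoints linearly; if unreached, use highest concentration. GI50: concentration for 50% inhibition of growth.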 Active and inactive are the calls of the source. No stated cut-off is given here; in the data, active = GI50 up to about 1.1 µM and inactive = higher.
Experiments:
Assay in all cases: NCI-60 cell line screen, 48 h
[1] = tested on: BT-549
[2] = tested on: MDA-N
[3] = tested on: SNB-78
[4] = tested on: DMS-273
[5] = tested on: M19-MEL
[6] = tested on: DMS-114
[7] = tested on: LXFL 529
[8] = tested on: XF498
[9] = tested on: RXF 631

**Q.** Which results are given for `Oc1ccc2c(c1)CCc1c-2n(CCN2CCOCC2)c2ccc(O)cc12`?
**A.** GI50 [1]: 31.3 µM (inactive); GI50 [2]: 45.3 µM (inactive)

**Q.** How did the GI50 [1] turn out when `N=C(N)c1ccc(/N=N\c2c(O)c(C(=O)Nc3ccccc3)cc3ccccc23)cc1` was run?
**A.** 46 µM (inactive)

**Q.** And the GI50 [2]?
**A.** 35.7 µM (inactive)

**Q.** Which GI50 [3] does the source give for `CC(C)c1ccc2c(c1)CCC1C(C)(C)[C@@H](O)CC[C@]21C` (stereo partly specified) here?
**A.** 47.4 µM (inactive)

**Q.** What about the GI50 [4] of the same molecule?
**A.** 31.8 µM (inactive)

**Q.** And the GI50 [5]?
**A.** 19.4 µM (inactive)

**Q.** What about the GI50 [6] of the same molecule?
**A.** 34.8 µM (inactive)

**Q.** And the GI50 [7]?
**A.** 47.3 µM (inactive)

**Q.** `C=C1CC/C=C(/C(=O)O)CC[C@H]2[C@@H]1CC2(C)C` was tested. Which GI50 [1] did it give?
**A.** > 100 µM (inactive)

**Q.** And the GI50 [2]?
**A.** > 100 µM (inactive)

**Q.** Which GI50 [3] does the source give for `NC(=O)N1N=C2c3ccccc3SC[C@H]2[C@@H]1c1ccccc1` here?
**A.** 33.5 µM (inactive)

**Q.** And the GI50 [8]?
**A.** 22 µM (inactive)

**Q.** What about the GI50 [5] of the same molecule?
**A.** 34.6 µM (inactive)

**Q.** And the GI50 [6]?
**A.** 23.7 µM (inactive)

**Q.** What about the GI50 [7] of the same molecule?
**A.** 26.5 µM (inactive)

**Q.** With `CC1=NN(C(=O)CC(=O)Nc2cccc(C)c2)C(=O)C1/N=N\c1ccc(S(=O)(=O)c2ccc(/N=N/C3C(=O)N(C(=O)CC(=O)Nc4cccc(C)c4)N=C3C)cc2)cc1` (stereo unspecified) as the molecule, how does the GI50 [1] read?
**A.** > 100 µM (inactive)

**Q.** What about the GI50 [2] of the same molecule?
**A.** > 100 µM (inactive)

**Q.** Which results are given for `CCCN(C(=O)c1ccccc1)C(C#N)c1ccc(C(C#N)N(CCC)C(=O)c2ccccc2)cc1` (stereo unspecified)?
**A.** GI50 [1]: 48.4 µM (inactive); GI50 [2]: > 100 µM (inactive)

**Q.** For `Clc1ccc(C2=NOC3C4CCC(C4)C23)cc1` (stereo unspecified), which GI50 [3] is on record?
**A.** > 100 µM (inactive)

**Q.** What about the GI50 [4] of the same molecule?
**A.** > 100 µM (inactive)

**Q.** And the GI50 [5]?
**A.** > 100 µM (inactive)

**Q.** And the GI50 [7]?
**A.** > 100 µM (inactive)

**Q.** With `CC(=O)Nc1cc(C(=O)Nc2cc(C(=O)Nc3cc(C(=O)Nc4cc(C(=O)Nc5cc(C(=O)NCCC(=O)NCCCN(C)C)n(C)c5)n(C)c4)n(C)c3)n(C)c2)n(C)c1` as the molecule, how does the GI50 [2] read?
**A.** 34.9 µM (inactive)

**Q.** With `O=C(c1ccco1)N(Cc1ccco1)C(=S)Nc1ccccc1` as the molecule, how does the GI50 [1] read?
**A.** 17.2 µM (inactive)

**Q.** And the GI50 [2]?
**A.** 10.5 µM (inactive)

**Q.** How did the GI50 [1] turn out when `O=C(C/N=C(\CN(c1ccccc1)c1ccccc1)Oc1c(Cl)cc(Cl)cc1Cl)n1cnc2ccccc21` was run?
**A.** 22.6 µM (inactive)

**Q.** And the GI50 [2]?
**A.** 59.8 µM (inactive)

**Q.** `COc1ccc(C(SCC(N)C(=O)O)(c2ccc(OC)cc2)c2ccc(OC)cc2)cc1` (stereo unspecified) was tested. Which GI50 [1] did it give?
**A.** 12.8 µM (inactive)

**Q.** And the GI50 [2]?
**A.** 3.5 µM (inactive)

**Q.** Which GI50 [4] does the source give for `CCCCCCCCCCCCCCCCCC(=O)NCCCNCCCNC(=O)CCCCCCCCCCCCCCCCC` here?
**A.** > 100 µM (inactive)

**Q.** What about the GI50 [9] of the same molecule?
**A.** > 100 µM (inactive)

**Q.** What about the GI50 [5] of the same molecule?
**A.** > 100 µM (inactive)

**Q.** What about the GI50 [6] of the same molecule?
**A.** > 100 µM (inactive)

**Q.** What about the GI50 [7] of the same molecule?
**A.** > 100 µM (inactive)

**Q.** Which GI50 [1] does the source give for `CN1CC(S(=O)(=O)c2ccccc2)CC(S(=O)(=O)c2ccccc2)C1c1ccccc1` (stereo unspecified) here?
**A.** 11.7 µM (inactive)

**Q.** What about the GI50 [2] of the same molecule?
**A.** 11.6 µM (inactive)

**Q.** `Nc1ccc2c(c1)Oc1c(F)c(F)cc3c(=O)c(C(=O)O)cn-2c13` was tested. Which GI50 [5] did it give?
**A.** 34.9 µM (inactive)

**Q.** And the GI50 [6]?
**A.** > 100 µM (inactive)

**Q.** What about the GI50 [7] of the same molecule?
**A.** 41.5 µM (inactive)

**Q.** `Cc1cc(Br)c(O)c(-c2cscn2)c1` was tested. Which GI50 [1] did it give?
**A.** 10.9 µM (inactive)

**Q.** Which results are given for `CCc1nc2ccc(NCCN(C)C)c3c(=O)c4ccccc4n1c23`?
**A.** GI50 [1]: 4.61 µM (inactive); GI50 [3]: 1.53 µM (inactive); GI50 [5]: 2 µM (inactive); GI50 [6]: 1.49 µM (inactive); GI50 [7]: 0.82 µM (active)

**Q.** What does the source list for `Clc1ccc(C(Cc2cccc(Cl)c2)c2c(Cl)nc(N3CCNCC3)nc2Cl)cc1` (stereo unspecified)?
**A.** GI50 [1]: 20.6 µM (inactive); GI50 [2]: 16.1 µM (inactive)

**Q.** How did the GI50 [1] turn out when `CC1=CC(=O)N(n2c(Cc3ccc(Cl)cc3)n[nH]c2=O)C1=O` was run?
**A.** 35.3 µM (inactive)

**Q.** What about the GI50 [2] of the same molecule?
**A.** 44.7 µM (inactive)

**Q.** How did the GI50 [3] turn out when `Cc1c(Cl)ccc2c1NC(=O)C2(O)C1Cc2ccccc2C1=O` (stereo unspecified) was run?
**A.** > 100 µM (inactive)

**Q.** And the GI50 [5]?
**A.** > 100 µM (inactive)

**Q.** What about the GI50 [6] of the same molecule?
**A.** 53.6 µM (inactive)

**Q.** And the GI50 [7]?
**A.** 41.1 µM (inactive)

**Q.** With `O=C1/C(=C/c2ccc([N+](=O)[O-])cc2)C(=O)N(c2ccccc2)C1c1ccccc1` (stereo unspecified) as the molecule, how does the GI50 [1] read?
**A.** > 10 µM (inactive)

**Q.** What about the GI50 [2] of the same molecule?
**A.** > 10 µM (inactive)

**Q.** How did the GI50 [1] turn out when `c1ccc2cc(CNCCCCNCCCNCc3ccc4ccccc4c3)ccc2c1` was run?
**A.** 1.78 µM (inactive)

**Q.** What about the GI50 [2] of the same molecule?
**A.** 0.993 µM (active)

**Q.** What does the source list for `COc1ccc(/C=C2/C[N+](C)(C)C/C(=C/c3ccc(OC)cc3)C2=O)cc1`?
**A.** GI50 [3]: 38.5 µM (inactive); GI50 [4]: 18.3 µM (inactive); GI50 [8]: 88.7 µM (inactive); GI50 [5]: 23.6 µM (inactive); GI50 [6]: 13.4 µM (inactive); GI50 [7]: 21.9 µM (inactive)

**Q.** With `Nc1nc(=O)n(C2OC(CO)C(O)C2O)c2ncc(-c3ccc(-c4ccccc4)cc3)nc12` (stereo unspecified) as the molecule, how does the GI50 [1] read?
**A.** > 100 µM (inactive)

**Q.** And the GI50 [2]?
**A.** > 100 µM (inactive)

**Q.** For `CCOC(=O)CCC(NC(=O)c1ccc(Nc2nc3cc(C(F)(F)F)ccc3nc2-c2ccccc2)cc1)C(=O)OCC` (stereo unspecified), which GI50 [1] is on record?
**A.** 25.2 µM (inactive)

**Q.** With `C[n+]1cccc2ccc3cccnc3c21` as the molecule, how does the GI50 [1] read?
**A.** 31.7 µM (inactive)

**Q.** What about the GI50 [2] of the same molecule?
**A.** 67.5 µM (inactive)

**Q.** With `N#CC1C(=O)NC23CCCCC2C1c1ccccc1O3` (stereo unspecified) as the molecule, how does the GI50 [1] read?
**A.** > 100 µM (inactive)

**Q.** And the GI50 [2]?
**A.** > 100 µM (inactive)

**Q.** How did the GI50 [3] turn out when `O/N=C1/CCCC/C1=C\c1ccc(Cl)c(Cl)c1` was run?
**A.** 22.9 µM (inactive)

**Q.** And the GI50 [4]?
**A.** 24.7 µM (inactive)

**Q.** What about the GI50 [8] of the same molecule?
**A.** 19.8 µM (inactive)

**Q.** And the GI50 [5]?
**A.** 37.3 µM (inactive)

**Q.** What about the GI50 [6] of the same molecule?
**A.** 19.3 µM (inactive)

**Q.** What about the GI50 [7] of the same molecule?
**A.** 19.7 µM (inactive)

**Q.** `COP1(=O)CC2C(Cl)(Cl)C2(C)C1` (stereo unspecified) was tested. Which GI50 [3] did it give?
**A.** > 100 µM (inactive)

**Q.** And the GI50 [4]?
**A.** > 100 µM (inactive)

**Q.** And the GI50 [8]?
**A.** > 100 µM (inactive)

**Q.** And the GI50 [5]?
**A.** > 100 µM (inactive)

**Q.** What about the GI50 [6] of the same molecule?
**A.** > 100 µM (inactive)

**Q.** What about the GI50 [7] of the same molecule?
**A.** > 100 µM (inactive)

**Q.** How did the GI50 [1] turn out when `NC(Cc1ccc(S(=O)(=O)O)cc1)C(=O)NC(CCCCNC(=O)NCCCCC(NC(=O)C(N)Cc1ccc(S(=O)(=O)O)cc1)C(=O)NC(Cc1ccc(S(=O)(=O)O)cc1)C(=O)O)C(=O)NC(Cc1ccc(S(=O)(=O)O)cc1)C(=O)O` (stereo unspecified) was run?
**A.** > 100 µM (inactive)

**Q.** And the GI50 [2]?
**A.** > 100 µM (inactive)
